Results: PubChem BioAssay AID1918944 (Molecular Pharmacology Branch, DTP, NCI, 2023)
“And” between values parts separate entries of the source, which are not always exact repeats. Equal values may be shown once. One block for each compound: values may come before it.

System: 786-0 complex spheroid viability
Experiment: Anticancer human tumor 786-0 cell line growth inhibition;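 note: spheroids exposed to agents for seven days before readout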
Details: for viability, T/C: stronger effect = lower value
Description: Multicellular complex tumor spheroid response to LSD1 Inhibitor Iadademstat in combination with a variety of drugs and investigational agents in selected tumor cell lines
The current study was undertaken to assess response to LSD1 inhibitors in combination with standard-of-care drugs and investigational agents in solid tumor complex spheroid models as well as in the K-562 leukemia. Complex spheroids include a stromal component modeled by human endothelial cells (HUVEC) and fibroblasts modeled by human mesenchymal stem cells (MSCs). The concentration ranges selected for each drug and investigational agent were based upon clinically achievable concentrations if the clinical Cmax of the agent was known.
Compounds. The drugs and investigational agents used in this study are listed on Table 1. All of the agents used, including staurosporine (NSC755774) and gemcitabine (NSC613327), were obtained from the Developmental Therapeutics Program, NCI. FDA-approved anticancer drugs are available from the NCI at http://dtp.nci.nih.gov/branches/dscb/oncology_drugset_explanation.html. Drugs and investigational agents were >95% pure by proton nuclear magnetic resonance (NMR) and liquid chromatography/mass spectrometry (LC/MS). Stock solutions were prepared at 400x in DMSO, stored at -70 degrees C, and diluted in fresh medium prior to their use. The final concentration of DMSO in cell culture wells never exceeded 0.25% (v/v). The FDA-approved anticancer drug set is available from the Developmental Therapeutics Program at https://dtp.cancer.gov/organization/dscb/obtaining/available_plates.htm. All drugs and investigational agents were tested over a range starting from a high concentration at or near the clinical Cmax and decreasing in half-log increments. If the clinical Cmax for an agent had not been determined, the highest concentration tested was 10 microM.
Cell Lines. The patient-derived cancer cell (PDC) lines: 292921-168-R-J2-PDC, K24384-001-R-PDC, and 521955-158-R2-J5-PDC pancreatic carcinomas, 556581-035-R-J1 ovarian carcinoma, 324938-238-R-J1-PDC, 855422-203-R-J1-PDC and 883617-216-R-J1-PDC urothelial bladder carcinomas, 743489-274-T-PDC renal cell carcinoma, 138582-R-J1 Merkel cell tumor, K60290-347-R-J1 and K57222-313-R-J1-PDC glioblastomas, 653999-131-R-J2-PDC, LG0703-F948-PDC, and 349418-098-R-PDC non-small cell lung carcinomas, 885512-296-R-J2-PDC, 171881-019-R-J1-PDC breast carcinomas and 186277-243-T-J2-PDC and 233499-124-R-J2-PDC colon carcinomas were obtained from the NCI Patient-Derived Models Repository (PDMR, https://pdmr.cancer.gov). The established cell lines NCI/ADR-RES (RRID:CVCL_14520 and OVCAR-5 (RRID:CVCL_1628) ovarian carcinomas, 786-O (RRID:CVCL_1051) and A498 (RRID:CVCL_A498) renal cell carcinoma, NCI-H211 (ATCC, cat. CRL-5824; RRID:CVCL_1529), NCI-H196 (ATCC, cat. CRL-5823, RRID:CVCL_1509), SW 1271 (ATCC, cat. CRL-2177, RRID:CVCL_1716) and NCI-H1876 (ATCC, cat. CRL-5902, RRID:CVCL_1503) small cell lung carcinomas, MDA-MB-231 (RRID:CVCL_0062) and MDA-MB-468 (RRID:CVCL_0419)breast carcinomas (10-12). Pooled donor human umbilical vein endothelial cells (HUVEC, Lonza, cat. CC-2519) and human mesenchymal stem cells (hMSC, Lonza, cat. PT-2501) were purchased from Lonza (Walkersville, MD).
Cell Culture. All cells were maintained in an incubator at 37 degrees C and 5% CO2 with 95% humidity. The PDC lines were cultured according to standard operating procedures established by the NCI PDMR (https://pdmr.cancer.gov). Briefly all PDCs were thawed and cultured in Matrigel-coated flasks prepared with a working solution of 1X Ham's F-12 nutrient mix, without supplementation (Invitrogen, Waltham, MA, cat. 11765054), 100 U/mL penicillin-streptomycin (Invitrogen, cat. 15140122), and 2.5% Matrigel (Corning Inc., Corning, NY, cat. 354248) for the first three passages. […]

[1] = curve of first compound, second compound 0.1 µM
[2] = curve of first compound, second compound 0.316 µM
[3] = curve of first compound, second compound 1 µM
[4] = curve of first compound, second compound 3.16 µM
[5] = curve of first compound, second compound 10 µM
[6] = second compound 0.1 µM, first compound 0.00316 µM
[7] = second compound 0.1 µM, first compound 0.01 µM
[8] = second compound 0.1 µM, first compound 0.0316 µM
[9] = second compound 0.1 µM, first compound 0.1 µM
[10] = second compound 0.316 µM, first compound 0.00316 µM
[11] = second compound 0.316 µM, first compound 0.01 µM
[12] = second compound 0.316 µM, first compound 0.0316 µM
[13] = second compound 0.316 µM, first compound 0.1 µM
[14] = second compound 1 µM, first compound 0.00316 µM
[15] = second compound 1 µM, first compound 0.01 µM
[16] = second compound 1 µM, first compound 0.0316 µM
[17] = second compound 1 µM, first compound 0.1 µM
[18] = second compound 3.16 µM, first compound 0.00316 µM
[19] = second compound 3.16 µM, first compound 0.01 µM
[20] = second compound 3.16 µM, first compound 0.0316 µM
[21] = second compound 3.16 µM, first compound 0.1 µM
[22] = second compound 10 µM, first compound 0.00316 µM
[23] = second compound 10 µM, first compound 0.01 µM
[24] = second compound 10 µM, first compound 0.0316 µM
[25] = second compound 10 µM, first compound 0.1 µM

SMILES: Nc1ncn(C2CC(O)C(CO)O2)c(=O)n1 (stereo unspecified) + NC1CCC(NC2CC2c2ccccc2)CC1
IC50 [1]: > 1000 nM
IC50 [2]: > 1000 nM
IC50 [3]: > 1000 nM
IC50 [4]: > 1000 nM
IC50 [5]: 628 nM
viability, T/C [6]: 115%
viability, T/C [7]: 117%
viability, T/C [8]: 97.1%
viability, T/C [9]: 82.6%
viability, T/C (second compound 0.1 µM, first compound 0.316 µM): 72.8%
viability, T/C (second compound 0.1 µM, first compound 1 µM): 56%
viability, T/C [10]: 127%
viability, T/C [11]: 108%
viability, T/C [12]: 95.3%
viability, T/C [13]: 92.2%
viability, T/C (second compound 0.316 µM, first compound 0.316 µM): 71.4%
viability, T/C (second compound 0.316 µM, first compound 1 µM): 63.1%
viability, T/C [14]: 118%
viability, T/C [15]: 99%
viability, T/C [16]: 96.7%
viability, T/C [17]: 82.5%
viability, T/C (second compound 1 µM, first compound 0.316 µM): 70.1%
viability, T/C (second compound 1 µM, first compound 1 µM): 59%
viability, T/C [18]: 103%
viability, T/C [19]: 117%
viability, T/C [20]: 82.8%
viability, T/C [21]: 82%
viability, T/C (second compound 3.16 µM, first compound 0.316 µM): 65.2%
viability, T/C (second compound 3.16 µM, first compound 1 µM): 52.6%
viability, T/C [22]: 79.2%
viability, T/C [23]: 80.2%
viability, T/C [24]: 82.6%
viability, T/C [25]: 69.6%
viability, T/C (second compound 10 µM, first compound 0.316 µM): 58.5%
viability, T/C (second compound 10 µM, first compound 1 µM): 44.6%

SMILES: CC[C@@]1(O)C(=O)OCc2c1cc1n(c2=O)Cc2cc3c(CN(C)C)c(O)ccc3nc2-1 + NC1CCC(NC2CC2c2ccccc2)CC1
IC50 [1]: 5.11 nM
IC50 [2]: 5.13 nM
IC50 [3]: 5.2 nM
IC50 [4]: 4.39 nM
IC50 [5]: 3.01 nM
viability, T/C (second compound 0.1 µM, first compound 0.000316 µM): 114%
viability, T/C (second compound 0.1 µM, first compound 0.001 µM): 113%
viability, T/C [6]: 77.3%
viability, T/C [7]: 11.8%
viability, T/C [8]: 5.31%
viability, T/C [9]: 3.53%
viability, T/C (second compound 0.316 µM, first compound 0.000316 µM): 111%
viability, T/C (second compound 0.316 µM, first compound 0.001 µM): 105%
viability, T/C [10]: 78.3%
viability, T/C [11]: 10.8%
viability, T/C [12]: 5.38%
viability, T/C [13]: 3.62%
viability, T/C (second compound 1 µM, first compound 0.000316 µM): 115%
viability, T/C (second compound 1 µM, first compound 0.001 µM): 105%
viability, T/C [14]: 80%
viability, T/C [15]: 10.3%
viability, T/C [16]: 5.66%
viability, T/C [17]: 3.63%
viability, T/C (second compound 3.16 µM, first compound 0.000316 µM): 101%
viability, T/C (second compound 3.16 µM, first compound 0.001 µM): 95.2%
viability, T/C [18]: 65.2%
viability, T/C [19]: 12.4%
viability, T/C [20]: 6.41%
viability, T/C [21]: 2.85%
viability, T/C (second compound 10 µM, first compound 0.000316 µM): 84%
viability, T/C (second compound 10 µM, first compound 0.001 µM): 71.7%
viability, T/C [22]: 50.3%
viability, T/C [23]: 6.62%
viability, T/C [24]: 5.01%
viability, T/C [25]: 3.36%

Second part, led by results:

IC50 (curve of compound): < 0.949 nM
SMILES: CCc1c2c(nc3ccc(O)cc13)-c1cc3c(c(=O)n1C2)COC(=O)[C@]3(O)CC
viability, T/C (compound 0.000949 µM): 6% and 6.39%
viability, T/C (compound 0.003 µM): 4.1% and 4.99%
viability, T/C (compound 0.00949 µM): 3.66% and 5.52%
viability, T/C (compound 0.03 µM): 3.36% and 6.78%
viability, T/C (compound 0.0949 µM): 4.94% and 9.67%
viability, T/C (compound 0.3 µM): 3.44% and 9.65%

IC50 (curve of compound): > 10000 nM
SMILES: CC1(C)CCC(CN2CCN(c3ccc(C(=O)NS(=O)(=O)c4ccc(NCC5CCOCC5)c([N+](=O)[O-])c4)c(Oc4cnc5[nH]ccc5c4)c3)CC2)=C(c2ccc(Cl)cc2)C1
viability, T/C (compound 0.0316 µM): 102% and 98%
viability, T/C (compound 0.1 µM): 106% and 105%
viability, T/C (compound 0.316 µM): 96.9% and 110%
viability, T/C (compound 1 µM): 97% and 99.1%
viability, T/C (compound 3.16 µM): 90.1% and 93.2%
viability, T/C (compound 10 µM): 66.7% and 79.4%

IC50 (curve of compound): 2.38 nM and 3.45 nM
SMILES: CC(C)CC(NC(=O)C(Cc1ccccc1)NC(=O)c1cnccn1)B(O)O (stereo unspecified)
viability, T/C (compound 0.000316 µM): 100% and 106%
viability, T/C (compound 0.001 µM): 107% and 108%
viability, T/C (compound 0.00316 µM): 32.1% and 53.2%
viability, T/C (compound 0.01 µM): 2.29% and 6.77%
viability, T/C (compound 0.0316 µM): 0.17% and 1.21%
viability, T/C (compound 0.1 µM): 0.2% and 0.37%
